According to US8785614B2, “Aberrantly methylated genes in pancreatic cancer” (The Johns Hopkins University, priority 2003, dated 2014):
Like-named read-outs stand apart in the source and are kept apart here.

Columns and labels:
[1] = system: nonneoplastic ductal cell line HPDE
Protocol: (§1) Total RNA was isolated from cultured cells using TRIZOL reagent (invitrogen, Carlsbad, Calif.) and purified using RNeasy Mini Kit (Qiagen, Valencia, Calif.). First- and second-stranded cDNA was synthesized from 10 μg of total RNA using 17-dT) primer (Genset Corp., La Jolla, Calif.) and Superscript Choice system (Invitrogen). Labeled cRNA was synthesized from the purified cDNA by in vitro transcription reaction using the BioArray High Yield RNA Transcript Labeling Kit (Enzo Diagnostics, Inc., Farmingdale, N.Y.) at 37° C. for 6 h. The cRNA was fragmented at 94° C. for 35 min. in a fragmentation buffer [40 mM Tris-acetate @ pH 8.1, 100 mM potassium acestate, and 30 mM magnesium acetate]. The fragmented cRNA was then hybridized to the Human Genome U133A chips (Affymetrix, Santa Clara, Calif.) with 18462 unique gene/EST transcripts at 45° C. for 16 h. The washing and staining procedure was performed in the Affymetrix Fluidics Station according to the manufacturer's instructions. The probes were then scanned using a laser scanner, and signal intensity for each transcript (background-subtracted and adjusted for noise) was calculated using Microarray Suite Software 5.0 (Affymetrix).
(§2) Fold change analysis of signal intensities obtained from oligonucleotide microarrays between the two treatment groups was performed using Data Mining software (Afrymetrix).

[2] = system: four pancreatic cancer cell lines (AsPC1, Hs766T, MiaPaCa2, Panc1)
Protocol: Mock-treated cells were cultured with the equivalent volume of PBS alone.
as §1, §2
The global changes in gene expression proxies induced by 5Aza-dC in four pancreatic cancer cell lines (AsPCl, Hs766T, MiaPaCa2, and Panel) were determined using the Afrymetrix U133 oligonucleotide microarrays with 18462 probes sets (transcripts) covering over 13000 full-length sequences of known genes.

Nc1ncn([C@H]2C[C@H](O)[C@@H](CO)O2)c(=O)n1 [5Aza-dC, 5 aza 2′ deoxycytidine]
Fold-change after 5Aza-dC treatment ([1]; ANGPT2, HPDE): −0.4 fold | Fold-change after 5Aza-dC treatment ([1]; BARD1, HPDE): 2.23 fold | Fold-change after 5Aza-dC treatment ([1]; BNIP3, HPDE): 1.23 fold | Fold-change after 5Aza-dC treatment ([1]; BST2, HPDE): −1.06 fold | Fold-change after 5Aza-dC treatment ([1]; CACNA1G, HPDE): 0.39 fold | Fold-change after 5Aza-dC treatment ([1]; CCNE2, HPDE): 1.5 fold | Fold-change after 5Aza-dC treatment ([1]; CDH3, HPDE): −1.08 fold | Fold-change after 5Aza-dC treatment ([1]; CDKN1A (p21), HPDE): 1.33 fold | Fold-change after 5Aza-dC treatment ([1]; CDKN1C, HPDE): 1.07 fold | Fold-change after 5Aza-dC treatment ([1]; CLDN5, HPDE): 2.45 fold | Fold-change after 5Aza-dC treatment ([1]; CSF1, HPDE): −1.03 fold | Fold-change after 5Aza-dC treatment ([1]; DR3, HPDE): 1.01 fold | Fold-change after 5Aza-dC treatment ([1]; FOXE1, HPDE): −1.1 fold | Fold-change after 5Aza-dC treatment ([1]; GAGE1, HPDE): −0.55 fold | Fold-change after 5Aza-dC treatment ([1]; GAGE3, HPDE): 1.33 fold | Fold-change after 5Aza-dC treatment ([1]; GAGE4, HPDE): 3.33 fold | Fold-change after 5Aza-dC treatment ([1]; GAGE6, HPDE): 2.41 fold | Fold-change after 5Aza-dC treatment ([1]; GAGE7, HPDE): 3.36 fold | Fold-change after 5Aza-dC treatment ([1]; HOXA1, HPDE): −1.23 fold | transcripts induced, share of transcripts analyzed ([1]; HPDE): 0.5% | transcripts whose expression was induced after drug treatment ([1]; HPDE): 101 transcripts | Fold-change after 5Aza-dC treatment ([1]; IGF2, HPDE): −0.34 fold | Fold-change after 5Aza-dC treatment ([1]; IL1R1, HPDE): −1.81 fold | Fold-change after 5Aza-dC treatment ([1]; ISG20, HPDE): 0.89 fold | Fold-change after 5Aza-dC treatment ([1]; JPH3, HPDE): 2.14 fold | Fold-change after 5Aza-dC treatment ([1]; KLK10, HPDE): 3.75 fold | Fold-change after 5Aza-dC treatment ([1]; LDOC1, HPDE): −1.12 fold | Fold-change after 5Aza-dC treatment ([1]; LHX1, HPDE): 1.01 fold | Fold-change after 5Aza-dC treatment ([1]; MAGE1, HPDE): 1.7 fold | Fold-change after 5Aza-dC treatment ([1]; MATN1, HPDE): −125 fold | Fold-change after 5Aza-dC treatment ([1]; NEFH, HPDE): −1.08 fold | Fold-change after 5Aza-dC treatment ([1]; NPTX2, HPDE): 2.42 fold | Fold-change after 5Aza-dC treatment ([1]; PAX6, HPDE): 2.57 fold | Fold-change after 5Aza-dC treatment ([1]; PDYN, HPDE): −1.04 fold | Fold-change after 5Aza-dC treatment ([1]; PLAT, HPDE): 4.9 fold | Fold-change after 5Aza-dC treatment ([1]; PLEK2, HPDE): 1.2 fold | Fold-change after 5Aza-dC treatment ([1]; SARP2, HPDE): 1.11 fold | Fold-change after 5Aza-dC treatment ([1]; SMARCA1, HPDE): 3.54 fold | Fold-change after 5Aza-dC treatment ([1]; ST14, HPDE): −1.05 fold | Fold-change after 5Aza-dC treatment ([1]; TIMP3, HPDE): 1.32 fold | Fold-change after 5Aza-dC treatment ([1]; TJP2, HPDE): 1.41 fold | Fold-change after 5Aza-dC treatment ([1]; TNF, HPDE): −1.2 fold | Fold-change after 5Aza-dC treatment ([1]; UCHL1, HPDE): 1.95 fold | Fold-change after 5Aza-dC treatment ([1]; WNT7A, HPDE): −1.23 fold | Fold-change after 5Aza-dC treatment ([1]; XAGE-1, HPDE): −0.43 fold | Fold-change after 5Aza-dC treatment ([1]; granulocytemacrophage colony-stimulating factor (M11734), HPDE): −0.94 fold | Fold-change after 5Aza-dC treatment ([1]; interferon, alpha-inducible protein (NM_022873), HPDE): 1.33 fold | Fold-change after 5Aza-dC treatment ([1]; p53-induced protein (PIGII), HPDE): −1.58 fold | Fold-change after 5Aza-dC treatment ([1]; reprimo, HPDE): 1.06 fold | Fold-change after 5Aza-dC treatment ([1]; stratifin (14-3-3 sigma), HPDE): −1.46 fold | Fold-change after 5Aza-dC treatment ([1]; stromal antigen 3 (STAG5), HPDE): 4.8 fold | Fold-change after 5Aza-dC treatment ([1]; testin, HPDE): 1.09 fold | changes in phenotypes during the treatment period [2]: did not result in apparent changes in their phenotypes | Induced by 5Aza-dC alone? ([2]; ADM): No | Induced by 5Aza-dC alone? ([2]; ANGPT1): No | Induced by 5Aza-dC alone? ([2]; AREG): No | Induced by 5Aza-dC alone? ([2]; ATF3): No | Induced by 5Aza-dC alone? ([2]; BIK): No | Induced by 5Aza-dC alone? ([2]; BIK (Table 3)): No | Induced by 5Aza-dC alone? ([2]; BNIP3): Yes | Induced by 5Aza-dC alone? ([2]; BST2): Yes | Induced by 5Aza-dC alone? ([2]; CACNA1G): Yes | Induced by 5Aza-dC alone? ([2]; CAPN5): No | Induced by 5Aza-dC alone? ([2]; CASP5): No | Induced by 5Aza-dC alone? ([2]; CCNA1): No | Induced by 5Aza-dC alone? ([2]; CDC25A): No | Induced by 5Aza-dC alone? ([2]; CDH8): Yes | Induced by 5Aza-dC alone? ([2]; CDKN1C): Yes | Induced by 5Aza-dC alone? ([2]; CDKN2A (p16)): No | Induced by 5Aza-dC alone? ([2]; CGR11): No | Induced by 5Aza-dC alone? ([2]; CHES1): No | Induced by 5Aza-dC alone? ([2]; CHFR): No | Induced by 5Aza-dC alone? ([2]; CLDN7): No | Induced by 5Aza-dC alone? ([2]; CLDN15): No | Induced by 5Aza-dC alone? ([2]; CRIP 1): No | Induced by 5Aza-dC alone? ([2]; CRLF1): No | Induced by 5Aza-dC alone? ([2]; CSF3): No | Induced by 5Aza-dC alone? ([2]; Cdc42 effector protein 2): No
